According to ChEMBL document CHEMBL4342418, “1,2,3-Triazole-containing hybrids as potential anticancer agents: Current developments, action mechanisms and structure-activity relationships” (Eur J Med Chem, 2019):

What was measured:
[1] = system: HeLa; experiment: Antiproliferative activity against human HeLa cells; type: functional, cell-based
[2] = system: A549; experiment: Antiproliferative activity against human A549 cells; type: functional, cell-based
[3] = system: HepG2; experiment: Antiproliferative activity against human HepG2 cells; type: functional, cell-based
[4] = system: A549; experiment: Antiproliferative activity against human A549 cells assessed as reduction in cell viability after 72 hrs by MTT assay; type: functional, cell-based; conditions: A549, 72 h
[5] = system: HepG2; experiment: Antiproliferative activity against human HepG2 cells assessed as reduction in cell viability after 72 hrs by MTT assay; type: functional, cell-based; conditions: HepG2, 72 h
[6] = system: A549/CDDP; experiment: Antiproliferative activity against human A549/CDDP cells assessed as reduction in cell viability after 72 hrs by MTT assay; type: functional, cell-based
[7] = system: HCT-116; experiment: Antiproliferative activity against human HCT116 cells assessed as reduction in cell viability after 72 hrs by MTT assay; type: functional, cell-based; conditions: HCT-116, 72 h
[8] = system: A549; experiment: Antitumour activity against human A549 cells xenografted in Kunming mice assessed as tumour growth inhibition at 5 mg/kg, iv bid administered and measured after week relative to control; type: functional; conditions: Mus musculus, read-out: TGI
[9] = system: A549; experiment: Antitumour activity against human A549 cells xenografted in Kunming mice assessed as tumour growth inhibition at 20 mg/kg, iv bid administered and measured after week relative to control; type: functional; conditions: Mus musculus, read-out: TGI
[10] = system: A549; experiment: Antitumour activity against human A549 cells xenografted in Kunming mice assessed as tumour growth inhibition at 50 mg/kg, po administered and measured after week relative to control; type: functional; conditions: Mus musculus, read-out: TGI
[11] = system: A549; experiment: Antitumour activity against human A549 cells xenografted in Kunming mice assessed as tumour growth inhibition at 10 mg/kg, iv bid administered and measured after week hrs relative to control; type: functional; conditions: Mus musculus, read-out: TGI
[12] = system: U-251; experiment: Antiproliferative activity against human U251 cells assessed as reduction in cell viability after 72 hrs by MTT assay; type: functional, cell-based; conditions: U-251, 72 h
[13] = system: A549/TR; experiment: Antiproliferative activity against human A549/TR cells assessed as reduction in cell viability after 72 hrs by MTT assay; type: functional, cell-based
[14] = system: SK-BR-3; experiment: Antiproliferative activity against human SKBR3 cells by MTT assay; type: functional, cell-based
[15] = system: A549; experiment: cells; type: functional, cell-based; conditions: Homo sapiens
Description: Antiproliferative activity against human A549 cells by MTT assay

[16] = system: K562/Adr; experiment: Antiproliferative activity against human K562/ADR cells by MTT assay; type: functional, cell-based
[17] = Antiproliferative activity against human SMCC7721 cells by MTT assay; type: functional, cell-based
[18] = system: PC-3; experiment: Antiproliferative activity against human PC3 cells by MTT assay; type: functional, cell-based
[19] = system: LNCaP; experiment: Antiproliferative activity against human LNCAP cells by MTT assay; type: functional, cell-based
[20] = system: HCT-116; experiment: Antiproliferative activity against human HCT116 cells by MTT assay; type: functional, cell-based
[21] = system: U-251; experiment: Antiproliferative activity against human U251 cells by MTT assay; type: functional, cell-based
[22] = system: L02; experiment: Antiproliferative activity against human HL7702 cells by MTT assay; type: cell-based
[23] = system: MCF7; experiment: cells; type: functional, cell-based; conditions: Homo sapiens
Description: Antiproliferative activity against human MCF7 cells by MTT assay

[24] = system: HFF; experiment: Antiproliferative activity against human HFF cells by MTT assay; type: cell-based
[25] = system: K562; experiment: Antiproliferative activity against human K562 cells by MTT assay; type: functional, cell-based
[26] = system: MDA-MB-231; experiment: cells; conditions: Homo sapiens
Description: Antiproliferative activity against human MDA-MB-231 cells assessed as reduction in cell viability preincubated for 24 hrs under hypoxia condition further incubated for 72 hrs under normaxic condition by MTT assay

[27] = system: MDA-MB-231; experiment: cells; conditions: Homo sapiens, MDA-MB-231, 96 h
Description: Antiproliferative activity against human MDA-MB-231 cells assessed as reduction in cell viability incubated for 96 hrs under normaxic condition by MTT assay

[28] = system: SK-N-SH; experiment: Potency index, ratio of 5-Fluorouracil IC50 to test compound IC50 for antiproliferative activity against human SK-N-SH cells by MTT assay; type: functional
[29] = system: SK-N-SH; experiment: Antiproliferative activity against human SK-N-SH cells by MTT assay; type: functional, cell-based
[30] = system: HepG2; experiment: Potency index, ratio of 5-Fluorouracil IC50 to test compound IC50 for antiproliferative activity against human HepG2 cells by MTT assay; type: functional
[31] = system: HepG2; experiment: Antiproliferative activity against human HepG2 cells by MTT assay; type: functional, cell-based
[32] = system: MGC-803; experiment: Antiproliferative activity against human MGC803 cells by MTT assay; type: functional, cell-based
[33] = system: MGC-803; experiment: Potency index, ratio of 5-Fluorouracil IC50 to test compound IC50 for antiproliferative activity against human MGC803 cells by MTT assay; type: functional
[34] = system: NCI-H460; experiment: Antiproliferative activity against human H460 cells by MTT assay; type: functional, cell-based
[35] = system: NCI-H1299; experiment: Antiproliferative activity against human H1299 cells by MTT assay; type: functional, cell-based
[36] = system: Ca-Ski; experiment: Antiproliferative activity against human CaSki cells by MTT assay; type: functional, cell-based

In the case of `CCCCCCc1ccc(-c2cn(Cc3cc(=O)oc4cc(O)ccc34)nn2)cc1`, the IC50 [1] is reported as 8.73 to 9.16 µM, the IC50 [2] is reported as 8.73 to 9.16 µM and the IC50 [3] is reported as 8.73 to 9.16 µM.

In the case of `CC(C)=CCC12OC(C)(C)C3CC(C=C4C(=O)c5c(OCc6cn(CCN7CCOCC7)nn6)cccc5OC431)C2=O` (configuration not stated), the IC50 [4] is reported as 310 to 3750 nM, the IC50 [5] is reported as 310 to 3750 nM and the IC50 [6] is reported as 310 to 3750 nM. For the same compound, the IC50 [7] was 310 to 3750 nM, the inhibition in vivo at 5 mg/kg [8] was 30.9% and the inhibition in vivo at 20 mg/kg [9] was 71.3%. The inhibition in vivo at 50 mg/kg [10] was 66.4%, the inhibition in vivo at 10 mg/kg [11] was 52.2% and the IC50 [12] was 310 to 3750 nM. It also gave an IC50 [13] of 310 to 3750 nM.

For `COC(=O)c1ccc(-c2cn(CC(=O)O[C@H]3c4cc5c(cc4[C@@H](c4cc(OC)c(OC)c(OC)c4)[C@H]4C(=O)OC[C@@H]43)OCO5)nn2)cc1`, the IC50 [14] was 19.6 to 55.3 µM, the IC50 [15] was 21.1 to 124 µM and the IC50 [16] was 19.6 to 55.3 µM. The IC50 [17] was 19.6 to 55.3 µM, the IC50 [18] was 21.1 to 124 µM and the IC50 [19] was 19.6 to 55.3 µM. It also gave an IC50 [20] of 19.6 to 55.3 µM, an IC50 [21] of 19.6 to 55.3 µM and an IC50 [22] of 565 µM. For the same compound, the IC50 [23] was 21.1 to 124 µM, the IC50 [24] was 195 µM and the IC50 [25] was 19.6 to 55.3 µM.

In the case of `COc1ccc(NC(=O)c2ccc(-n3cc(COc4cc(=O)oc5ccccc45)nn3)cc2)cc1OC`, the IC50 [26] is reported as 30 nM and the IC50 [27] is reported as 1340 nM.

For `COc1cccc(Cn2cc(CNc3ccc(C(=O)/C=C/c4cccnc4)cc3)nn2)c1`, the “Ratio IC50” value [28] was 2.6 - 6.7, the IC50 [29] was 1530 to 2730 nM and the “Ratio IC50” value [30] was 2.6 - 6.7. For the same compound, the IC50 [31] was 1530 to 2730 nM, the IC50 [32] was 1.53 to 2.73 µM and the “Ratio IC50” value [33] was 2.6 - 6.7.

For `CO[C@H]1C[C@@H]2CC[C@@H](C)[C@@](O)(O2)C(=O)C(=O)N2CCCC[C@H]2C(=O)O[C@H]([C@H](C)C[C@@H]2CC[C@@H](OCCCn3cc(CNc4ccc(Cl)cc4Cl)nn3)[C@H](OC)C2)CC(=O)[C@H](C)/C=C(\C)[C@@H](O)[C@@H](OC)C(=O)[C@H](C)C[C@H](C)/C=C/C=C/C=C/1C`, the IC50 [34] was 6.05 to 25.9 µM, the IC50 [35] was 6.05 to 25.9 µM and the IC50 [36] was 6.05 to 25.9 µM. For the same compound, the IC50 [32] was 6.05 to 25.9 µM.
